According to patent publication US20240374879A1, “METHODS AND COMPOSITIONS TO REDUCE CELLULAR DEPOSITION, AND HYDROCEPHALUS SHUNT FAILURE” (Wayne State University, priority 2021, published 2024):

How the values were obtained:
A2 reactive astrocytes = assay: A2 reactive astrocyte attachment on PDMS coated plates (targeted drug delivery); type: cell-based, mouse; conditions: 30 ng/ml, 48 h; FIG. 5B
A1 reactive astrocytes = assay: A1 reactive astrocyte attachment on PDMS coated plates (targeted drug delivery); type: cell-based, mouse; conditions: 30 ng/ml, 48 h
Description: Purification of astrocytes by immunopanning: Astrocytes were purified by immunopanning from post-natal day (P) 5 mouse brains and cultured as previously described (Foo et al., Neuron. 71(5):799-811, 2011). Cerebral cortices were dissected and enzymatically digested using papain at 37° C. and 10% CO2. Tissue was then mechanically triturated with a serological pipette at RT to generate a single-cell suspension. The suspension was filtered and negatively panned for microglia/macrophage cells (CD45), oligodendrocyte progenitor cells (04 hybridoma), and endothelial cells (L1) followed by positive panning for astrocyte cells (ITGB5). Astrocytes were cultured in defined, serum-free medium containing 50% neurobasal, 50% DMEM, 100 U/mL penicillin, 100 μg/mL streptomycin, 1 mM sodium pyruvate, 292 μg/mL L-glutamine, 1×SATO, 5 μg/mL of N-acetyl cysteine, and 5 ng/mL HBEGF.
Targeted drug delivery: A1 reactive astrocytes were generated by culturing the purified astrocytes on PDMS coated tissue culture plates and then treating for 24 h with IL-1α (3 ng/ml, Sigma, 13901), TNF-α (30 ng/ml, Cell Signaling Technology, 8902SF), and C1q (400 ng/ml, MyBioSource, MBS143105). […]

Substance: TGF-β
- attachment of A2 astrocytes on PDMS coated surfaces (A2 reactive astrocytes): did not induce
- A1 astrocyte reactive state (A1 reactive astrocytes): reset A1 astrocytes to a non-reactive state
- attachment of A1 astrocytes on PDMS coated surfaces (A1 reactive astrocytes; FIG. 5A): significantly reducing
